These compounds were tested against T1, BTK (Homo sapiens, UniProt Q06187) (assay: BTK degradation assay using the HiBiT Method (Nano-Glo HiBiT Lytic Assay, GM01501.3 cells)). Details: HiBiT Degradation on GM01501.3 BTK @ 6 hours.
T1 construct: The GM01501.3 cell line endogenously expresses BTK with a HiBiT fusion tag via CRISPR knock-in at its C-terminal region; endogenous in cells; host or cells: GM01501.3 (GM01501 cells engineered by CRISPR knock-in of HiBiT at the BTK locus)
Format: cell-based
Outline: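 Degradation read-out: HiBiT luminescence after lytic reagent addition, giving DC50. Compounds dosed from 10 μM in 11 half-log steps (duplicate) onto GM01501.3 cells, whose endogenous BTK carries a C-terminal HiBiT knock-in tag; 6 h exposure, 37 °C, 5% CO2.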

T1 sequence (Q06187 whole entry, the tested form may be a part): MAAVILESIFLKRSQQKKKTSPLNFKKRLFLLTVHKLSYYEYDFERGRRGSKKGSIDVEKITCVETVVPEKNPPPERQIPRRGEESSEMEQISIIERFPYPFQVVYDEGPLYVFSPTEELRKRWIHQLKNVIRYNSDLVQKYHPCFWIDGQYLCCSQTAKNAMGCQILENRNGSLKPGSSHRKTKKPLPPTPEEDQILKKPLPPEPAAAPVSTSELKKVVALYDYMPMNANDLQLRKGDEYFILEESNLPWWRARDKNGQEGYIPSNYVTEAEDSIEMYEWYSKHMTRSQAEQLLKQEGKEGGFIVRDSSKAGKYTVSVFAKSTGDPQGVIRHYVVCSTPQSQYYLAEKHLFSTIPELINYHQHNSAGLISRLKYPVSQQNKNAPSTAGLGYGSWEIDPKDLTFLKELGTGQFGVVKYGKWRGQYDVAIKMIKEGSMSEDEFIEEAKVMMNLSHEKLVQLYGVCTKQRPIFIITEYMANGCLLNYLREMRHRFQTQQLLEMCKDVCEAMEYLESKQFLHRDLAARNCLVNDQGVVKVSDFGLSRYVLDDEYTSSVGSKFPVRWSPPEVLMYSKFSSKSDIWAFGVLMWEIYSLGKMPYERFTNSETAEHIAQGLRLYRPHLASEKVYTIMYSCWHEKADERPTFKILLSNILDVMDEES

Row | DC50 | Structure (SMILES)
1 | < 100 nM | Cc1cc(-c2ncnn3cc(-c4ccc(CN5CCC(c6ccc(NC7CCC(=O)NC7=O)cc6)CC5)cc4)cc23)ccc1CNC(=O)c1cccnc1 (stereo not shown) [Example 90, N-[[4-[6-[4-[[4-[4-[(2,6-dioxo-3-piperidyl)amino]phenyl]-1-piperidyl]methyl]phenyl]pyrrolo[2,1-f][1,2,4]triazin-4-yl]-2-methyl-phenyl]methyl]pyridine-3-carboxamide]
2 | < 100 nM | Cc1cc(-c2ncnn3cc(-c4ccc(CN5CCC(c6ccc(NC7CCC(=O)NC7=O)cc6)CC5)cc4)cc23)ccc1CNC(=O)c1cnc(C(C)C)cn1 (stereo not shown) [Example 91, N-[[4-[6-[4-[[4-[4-[(2,6-dioxo-3-piperidyl)amino]phenyl]-1-piperidyl]methyl]phenyl]pyrrolo[2,1-f][1,2,4]triazin-4-yl]-2-methyl-phenyl]methyl]-5-isopropyl-pyrazine-2-carboxamide]
3 | < 100 nM | Cc1cc(-c2ncnn3cc(-c4ccc(CN5CCC(c6ccc(NC7CCC(=O)NC7=O)cc6)CC5)cc4)cc23)ccc1CNC(=O)c1ccc(C(C)C)nn1 (stereo not shown) [Example 92, N-[[4-[6-[4-[[4-[4-[(2,6-dioxo-3-piperidyl)amino]phenyl]-1-piperidyl]methyl]phenyl]pyrrolo[2,1-f][1,2,4]triazin-4-yl]-2-methyl-phenyl]methyl]-6-isopropyl-pyridazine-3-carboxamide]
4 | < 100 nM | COc1ccc(C(=O)NCc2ccc(-c3ncnn4cc(-c5ccc(CN6CCC(c7ccc(NC8CCC(=O)NC8=O)cc7)CC6)cc5)cc34)cc2C)nc1 (stereo not shown) [Example 93, N-[[4-[6-[4-[[4-[4-[(2,6-dioxo-3-piperidyl)amino]phenyl]-1-piperidyl]methyl]phenyl]pyrrolo[2,1-f][1,2,4]triazin-4-yl]-2-methyl-phenyl]methyl]-5-methoxy-pyridine-2-carboxamide]
5 | < 100 nM | Cc1cc(-c2ncnn3cc(-c4ccc(CN5CCC(c6ccc(NC7CCC(=O)NC7=O)cc6)CC5)cc4)cc23)ccc1CNC(=O)c1ncc(C(C)C)cn1 (stereo not shown) [Example 94, N-[[4-[6-[4-[[4-[4-[(2,6-dioxo-3-piperidyl)amino]phenyl]-1-piperidyl]methyl]phenyl]pyrrolo[2,1-f][1,2,4]triazin-4-yl]-2-methyl-phenyl]methyl]-5-isopropyl-pyrimidine-2-carboxamide]
6 | < 100 nM | Cc1ccc(C(=O)NCc2ccc(-c3ncnn4cc(-c5ccc(CN6CCC(c7ccc(NC8CCC(=O)NC8=O)cc7)CC6)cc5)cc34)cc2C)c(F)c1 (stereo not shown) [Example 95, N-[[4-[6-[4-[[4-[4-[(2,6-dioxo-3-piperidyl)amino]phenyl]-1-piperidyl]methyl]phenyl]pyrrolo[2,1-f][1,2,4]triazin-4-yl]-2-methyl-phenyl]methyl]-2-fluoro-4-methyl-benzamide]
7 | < 100 nM | Cc1cc(-c2ncnn3cc(-c4ccc(CN5CCC(c6ccc(NC7CCC(=O)NC7=O)cc6)CC5)cc4)cc23)ccc1CNC(=O)c1ccc(C(F)F)cn1 (stereo not shown) [Example 96, 5-(difluoromethyl)-N-[[4-[6-[4-[[4-[4-[(2,6-dioxo-3-piperidyl)amino]phenyl]-1-piperidyl]methyl]phenyl]pyrrolo[2,1-f][1,2,4]triazin-4-yl]-2-methyl-phenyl]methyl]pyridine-2-carboxamide]
8 | < 100 nM | O=C1CCC(Nc2ccc(C3CCN(Cc4ccc(-c5cc6c(-c7ccc(CNC(=O)c8ccc(C(F)F)cc8)c(F)c7)ncnn6c5)cc4)CC3)cc2)C(=O)N1 (stereo not shown) [Example 101, 4-(difluoromethyl)-N-[[4-[6-[4-[[4-[4-[(2,6-dioxo-3-piperidyl)amino]phenyl]-1-piperidyl]methyl]phenyl]pyrrolo[2,1-f][1,2,4]triazin-4-yl]-2-fluoro-phenyl]methyl]benzamide]
9 | < 100 nM | O=C1CCC(Nc2ccc(C3CCN(Cc4ccc(-c5cc6c(-c7ccc(CNC(=O)c8ccc(C(F)F)cc8)c(F)c7)ncnn6c5)cc4)CC3)nc2)C(=O)N1 (stereo not shown) [Example 102, 4-(difluoromethyl)-N-[[4-[6-[4-[[4-[5-[(2,6-dioxo-3-piperidyl)amino]-2-pyridyl]-1-piperidyl]methyl]phenyl]pyrrolo[2,1-f][1,2,4]triazin-4-yl]-2-fluoro-phenyl]methyl]benzamide]
10 | < 100 nM | Cc1cc(-c2ncnn3cc(-c4ccc(CN5CCC(c6ccc(NC7CCC(=O)NC7=O)cc6)CC5)cc4)cc23)ccc1CN1CCN(CC(C)(C)C)CC1=O (stereo not shown) [Example 103, 3-[4-[1-[[4-[4-[4-[[4-(2,2-dimethylpropyl)-2-oxo-piperazin-1-yl]methyl]-3-methyl-phenyl]pyrrolo[2,1-f][1,2,4]triazin-6-yl]phenyl]methyl]-4-piperidyl]anilino]piperidine-2,6-dione]
11 | < 100 nM | Cc1cc(-c2ncnn3cc(-c4ccc(OCCN5CCC(c6ccc(C7CCC(=O)NC7=O)cc6)CC5)cc4)cc23)ccc1CNC(=O)c1noc(C(C)(C)C)n1 (stereo not shown) [Example 104, 5-tert-butyl-N-[[4-[6-[4-[2-[4-[4-(2,6-dioxo-3-piperidyl)phenyl]-1-piperidyl]ethoxy]phenyl]pyrrolo[2,1-f][1,2,4]triazin-4-yl]-2-methyl-phenyl]methyl]-1,2,4-oxadiazole-3-carboxamide]
12 | < 100 nM | Cc1cc(-c2ncnn3cc(-c4ccc(OCCN5CCC(c6ccc(NC7CCC(=O)NC7=O)cc6)CC5)cc4)cc23)ccc1CNC(=O)c1noc(C(C)(C)C)n1 (stereo not shown) [Example 105, 5-tert-butyl-N-[[4-[6-[4-[2-[4-[4-[(2,6-dioxo-3-piperidyl)amino]phenyl]-1-piperidyl]ethoxy]phenyl]pyrrolo[2,1-f][1,2,4]triazin-4-yl]-2-methyl-phenyl]methyl]-1,2,4-oxadiazole-3-carboxamide]

Row | Structure (SMILES) | DC50
13 | Cc1cc(-c2ncnn3cc(-c4ccc(CN5CCC(c6ccc(NC7CCC(=O)NC7=O)cc6)CC5)cc4)cc23)ccc1CNC(=O)N1CC(OC(C)(C)C)C1 (stereo not shown) [Example 97, 3-tert-butoxy-N-[[4-[6-[4-[[4-[4-[(2,6-dioxo-3-piperidyl)amino]phenyl]-1-piperidyl]methyl]phenyl]pyrrolo[2,1-f][1,2,4]triazin-4-yl]-2-methyl-phenyl]methyl]azetidine-1-carboxamide] | < 100 nM
14 | Cc1cc(-c2ncnn3cc(-c4ccc(CN5CCC(c6ccc(NC7CCC(=O)NC7=O)cc6)CC5)cc4)cc23)ccc1CNC(=O)N1CCC(OC(C)(C)C)C1 (stereo not shown) [Example 98, 3-tert-butoxy-N-[[4-[6-[4-[[4-[4-[(2,6-dioxo-3-piperidyl)amino]phenyl]-1-piperidyl]methyl]phenyl]pyrrolo[2,1-f][1,2,4]triazin-4-yl]-2-methyl-phenyl]methyl]pyrrolidine-1-carboxamide] | < 100 nM
15 | CC(C)(C)OC1CN(C(=O)NCc2ccc(-c3ncnn4cc(-c5ccc(CN6CCC(c7ccc(NC8CCC(=O)NC8=O)cc7)CC6)cc5)cc34)cc2F)C1 (stereo not shown) [Example 99, 3-tert-butoxy-N-[[4-[6-[4-[[4-[4-[(2,6-dioxo-3-piperidyl)amino]phenyl]-1-piperidyl]methyl]phenyl]pyrrolo[2,1-f][1,2,4]triazin-4-yl]-2-fluoro-phenyl]methyl]azetidine-1-carboxamide] | < 100 nM
16 | CC(C)(C)OC1CN(C(=O)NCc2ccc(-c3ncnn4cc(-c5ccc(CN6CCC(c7ccc(NC8CCC(=O)NC8=O)cn7)CC6)cc5)cc34)cc2F)C1 (stereo not shown) [Example 100, 3-tert-butoxy-N-[[4-[6-[4-[[4-[5-[(2,6-dioxo-3-piperidyl)amino]-2-pyridyl]-1-piperidyl]methyl]phenyl]pyrrolo[2,1-f][1,2,4]triazin-4-yl]-2-fluoro-phenyl]methyl]azetidine-1-carboxamide] | < 100 nM

Source: patent US20240287076A1, “COMPOUNDS FOR TARGETING DEGRADATION OF BRUTON'S TYROSINE KINASE” (BIOGEN MA INC., priority 2021, published 2024)
